Data reported in article PMC3836680 (Amino acids, 2011).

Molecular target: S. pyogenes P5C reductase (Streptococcus pyogenes, UniProt Q9A1S9)
Assay: P5C reductase inhibition assay
Type: biochemical
Details: read-out: Enzyme inhibition at 0.2 mM

NC(P(=O)(O)O)P(=O)(O)O [Compound 01, aminomethylenebisphosphonic acid]
inhibition at 200 µM: 3 ± 2.1%
